As a reminder, the IC50 is the concentration that gives 50% inhibition.

The record followed here is PMC7468596, “Potent In Vitro α-Glucosidase and β-Secretase Inhibition of Amyrin-Type Triterpenoid Isolated from Datura metel Linnaeus (Angel's Trumpet) Fruits” (BioMed Research International, 2020).

The target in assay [1] is T1, α-glucosidase (rat intestinal).
T1 construct: supernatant of rat intestinal acetone powder
The assay can be described thus: p-nitrophenyl-α-D-glucopyranoside hydrolysis, […] nm, crude intestinal enzyme. The class given is biochemical.

In the next assay the target is β-secretase (BACE1) (Homo sapiens, UniProt P56817). The assay can be described thus: BACE1 FRET enzyme assay, pH […]. The class given is biochemical.
β-secretase (BACE1), sequence (P56817 46-457): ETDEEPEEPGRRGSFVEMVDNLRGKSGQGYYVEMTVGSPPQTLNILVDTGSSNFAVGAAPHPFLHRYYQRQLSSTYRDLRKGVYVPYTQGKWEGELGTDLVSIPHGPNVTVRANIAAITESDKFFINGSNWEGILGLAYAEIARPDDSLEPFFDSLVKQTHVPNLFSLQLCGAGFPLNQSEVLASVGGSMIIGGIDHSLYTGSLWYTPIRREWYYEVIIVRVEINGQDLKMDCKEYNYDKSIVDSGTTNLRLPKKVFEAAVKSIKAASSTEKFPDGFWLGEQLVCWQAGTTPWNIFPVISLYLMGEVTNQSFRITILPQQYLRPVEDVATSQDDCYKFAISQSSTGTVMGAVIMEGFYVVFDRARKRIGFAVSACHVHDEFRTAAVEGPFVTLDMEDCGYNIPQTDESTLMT

Consider `CC1(C)CC[C@]2(C)CC[C@]3(C)C(=CC[C@@H]4[C@@]5(C)CCC(=O)C(C)(C)[C@@H]5[C@H](O)C[C@]43C)[C@@H]2C1` [compound 1, daturaolone], for which the figures for the IC50 (in assay [1]; against β-secretase (BACE1)) were 830.4 ± 2.01 µM and 260.7 ± 1.87 µM, respectively.
